Consider one compound from patent publication US12673039B2, “Methods of inducing autophagy using coumarin derivatives and related compounds” (Buck Institute for Research on Aging, priority 2019, dated 2026).

One test concerns TFEB. Kind of test: TFEB activation screen, % activation/control at 24 and 48 hrs (Table 1). The test is classed as cell-based, human. As for the experimental part: FIG. 25, panels A-B::AIC106 identified as a lead compound in a TFEB-transcription based screen. Panel A) Rat Neuronal N27 cells were transfected with a vector construct driving expression of secreted-Gaussia luciferase (Sec-Gaussia) in control of 2 kb human TFEB promoter. Next day, cells were seeded into 96-well cell culture plate and exposed to compounds (30 μM) from natural product library (NPL-640) or DMSO-control. After 24 and 48 hours of compound treatment supernatant from the cells was collected and TFEB promoter activity determined by quantifying luciferase activity. Panel B) Effects of AIC106 treatment on HLH-30 expression after 24 hours treatment were determined by immunoblot against GFP in young adult stage of GFP-tagged HLH-30 strain (MAH235) following total protein extraction.
It was discovered that small structural alterations in the C1 compound can have significant effects on the degree of TFEB activation (see, e.g., FIG. 17) the screening systems described herein identified a number of structures related to C1 that similarly induce TFEB.
In vitro drug screening studies. […] We utilized for these studies a 3000 compound natural product derivative library (Timtec, Newark, DE) in […] transfected with a sensitive TFEB promotor-Gaussian luciferase construct. […] C1 is a coumarin-related compound, part of a family of natural benzopyrones found in many edible plants.
To identify novel transcriptional inducers of TFEB, we transfected rat neuronal N27 cells with a vector driving expression of secreted-luciferase under control of the human TFEB promoter. […] AIC106 belongs to a family of coumarin compounds containing an active benzopyrone ring.

The subject of a further test is SH-SY5Y cells. Kind of test: Autophagic flux (LC3-II ± bafilomycin A1) in SH-SY5Y cells. Particulars: presence and absence of bafliomycin A1. It is filed as cell-based, human. As for the experimental part: FIG. 23, panels A-H: FXR modulation enhances HLH-30 expression in human neuronal SH-SY5Y cells. Panel A) Effects of AIC106 on human FXR activity was determined in a mammalian one-hybrid based kit assay by quantifying changes in the luciferase activity of FXR ligand (GW4064, GW) induced treatment. [N=3 independent experiments (mean±SD). ****p<0.0001, by one-way ANOVA with Tukey's multiple comparisons test]. Panel B) Protein expression of TFEB, cathepsin-D (CAT-D) and small heterodimer partner-1 (SHP-1) was determined by immunoblot in neuronal SH-SY5Y cells post-24 hours of treatment with AIC106 and DMSO-control. Panel C) AIC106 enhances autophagic flux in neuronal SH-SY5Y cells. Autophagic flux in DMSO-control and AIC106 treated neuronal cells was determined by quantifying levels of autophagosome specific LC3-II protein both in presence and absence of autophagy inhibitor bafliomycin A1 (Baf A, 10 nM). Panel D) Relative fold change in the band intensity of LC3-II protein, normalized to loading control actin. Values are relative to DMSO-control. […] Panel E) Effects of AIC106 treatment for 72 hours on basal TAU and phosphorylated-TAU in differentiated human neuronal SH-SHY5Y and heterozygous TSC1(+/−) mutant SH-SY5Y neuronal cells were quantitated by immunoblotting following total protein extraction. […]

Take `O=c1oc2c3c4c(cc2c2c1CCC2)CCCN4CCC3` [C1, 2,3,6,7,10,11-Hexahydro-1H,5H-cyclopenta(3,4)(1)benzopyrano(6,7,8-ij)quinolizin-12(9H)-one]: the “% activation/Control 24 hrs” value in the test on TFEB (24 hrs) was determined as 350.83%. Moreover, in the test with TFEB (48 hrs), the “% activation/Control 48 hrs” value is on record as 413.96%. The “autophagic flux (LC3 turnover)” value in the test with SH-SY5Y cells is on record as “enhanced autophagic flux”.
